Data published in patent publication US8450525B2, “Histone deacetylase inhibitors” (Orchid Chemicals & Pharmaceuticals Limited, priority 2007, dated 2013).

Columns and labels:
[1] = system: NCI-H460 (lung) cells; assay: Anti-cancer screen, growth inhibition (MTT); assay type: cell-based; settings: Homo sapiens, 48 hours of incubation
Outline: (§1)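 MTT added for 3 h at 37° C, formazan dissolved in DMSO and A570 read. A T0 plate was measured at compound addition.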

[2] = system: HCT 116 (colon) cells; assay: Anti-cancer screen, growth inhibition (MTT); assay type: cell-based; settings: Homo sapiens, HCT-116 cells, 48 hours of incubation
Outline: as §1

[3] = system: U251 (glioma) cells; assay: Anti-cancer screen, growth inhibition (MTT); assay type: cell-based; settings: Homo sapiens, U-251 cells, 48 hours of incubation
Outline: as §1

[4] = system: T1, HDAC (Mouse Liver Extract); assay: HDAC inhibition assay using Boc-Lys(Ac)-AMC substrate, mouse liver enzyme; assay type: biochemical;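 for IC50: IC50 for inhibition of HDAC activity in mouse liver extract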
T1 construct: Mouse liver enzyme (10 mg/ml) was diluted 1:6 with HDAC buffer

GI50 [1] [µM]	GI50 [2] [µM]	GI50 [3] [µM]	HDAC Inhibition % (1 μM) [4] [%]	HDAC Inhibition % (10 μM) [4] [%]	IC50 [4] [µM]	SMILES
48	17	19	50.1	80.4		O=C(NC1CC1)/C(=C/c1ccc(C(=O)NO)cc1)c1ccccc1 [Example 102, 4-(3-(Cyclopropylamino)-2-phenyl-3-oxoprop-1-en-1-yl)-N-hydroxybenzamide]
10	12	10	96.3	99.3		O=C(/C=C/c1ccc(/C=C(/C(=O)N2CCOCC2)c2ccc(F)cc2)cc1)NO [Example 15]
5.3	8.2	3.2	87.8	97.5	0.006	O=C(CCCCCNC(=O)c1ccc(/C=C(/C(=O)NC2CC2)c2ccccc2)cc1)NO [Example 161]
2.6	5.2	5	81.4	97.6	0.28	O=C(/C=C/c1ccc(/C=C(/C(=O)Nc2ccccc2)c2cccc(OCC3CC3)c2)cc1)NO [Example 42, 2-(3-Cyclopropylmethoxyphenyl)-3-(4-((1E)-3-(hydroxyamino)-3-oxoprop-1-en-1-yl)phenyl)-N-phenylacrylamide]
> 100	> 100	> 100	34.0	36.0		Nc1ccccc1NC(=O)/C=C/c1ccc(/C=C(/C(=O)NC2CC2)c2ccccc2)cc1 [Example 70, N-Cyclopropyl-3-(4-((1E)-3-(2-aminophenylamino)-3-oxoprop-1-en-1-yl}phenyl)-2-phenylacrylamide]
> 100	9	18	91.5	98.8		O=C(/C=C/c1ccc(/C=C(/C(=O)N2CCOCC2)c2ccccc2F)cc1)NCc1ccc(C(=O)NO)cc1 [Example 98, 4-(((1E)-3-(4-(3-(Morpholino)-2-(2-fluorophenyl)-3-oxoprop-1-en-1-yl)phenyl)acrylamido)methyl)-N-hydroxybenzamide]
0.1	2	0.08	86.9	97.8	0.022	Cc1ccc(/C(=C\c2ccc(C(=O)NCc3ccc(C(=O)NO)cc3)cc2)C(=O)NC2CC2)cc1 [Example 148, 4-(3-(Cyclopropylamino)-2-(4-methylphenyl)-3-oxoprop-1-en-1-yl)-N-(4-(hydroxycarbamoyl)benzyl)benzamide]
9	5.8	16	34.7	56.0		Nc1ccccc1NC(=O)c1ccc(/C=C(/C(=O)NC2CC2)c2cc(F)ccc2F)cc1 [Example 130, N-(2-Aminophenyl)-4-(2-(2,5-difluorophenyl)-3-(cyclopropylamino)-3-oxoprop-1-en-1-yl)benzamide]
7.5	6.5	2.3	100.0	100.0	0.0025	COc1cccc(/C(=C\c2ccc(/C=C/C(=O)NCc3ccc(C(=O)NO)cc3)cc2)C(=O)NC2CC2)c1 [Example 97, 4-(((1E)-3-(4-(3-(Cyclopropylamino)-2-(3-methoxyphenyl)-3-oxoprop-1-en-1-yl)phenyl)acrylamido)methyl)-N-hydroxybenzamide]
7.5	2.1	3.5	88.2	99.1	0.043	COc1ccc(/C(=C\c2ccc(/C=C/C(=O)NO)cc2)C(=O)NC(C)C)cc1F [Example 26, N-Isopropyl-2-(3-fluoro-4-methoxyphenyl)-3-(4-((1E)-3-(hydroxyamino)-3-oxoprop-1-en-1-yl)phenyl)acrylamide]
30	6	6.1	80.5	100.0		NC(=O)/C(=C/c1ccc(/C=C/C(=O)NO)cc1)c1ccc(F)cc1 [Example 28, 2-(4-Fluorophenyl)-3-(4-((1E)-3-(hydroxyamino)-3-oxoprop-1-en-1-yl)phenyl)acrylamide]
26	26	26	88.4	98.1		O=C(NC1CC1)/C(=C/c1ccc(C(=O)NCc2ccc(C(=O)NO)cc2)cc1)c1cccc(F)c1 [Example 156, 4-(3-(Cyclopropylamino)-2-(3-fluorophenyl)-3-oxoprop-1-en-1-yl)-N-(4-(hydroxycarbamoyl)benzyl)benzamide]
74	94	> 100	25.5	54.4		COc1cccc(/C(=C\c2ccc(/C=C/C(=O)Nc3ccccc3N)cc2)C(=O)NC2CC2)c1 [Example 69, N-Cyclopropyl-3-(4-((1E)-3-(2-aminophenylamino)-3-oxoprop-1-en-1-yl}phenyl)-2-(3-methoxyphenyl)acrylamide]
25	14	> 100	84.3	100.0		O=C(/C=C/c1ccc(/C=C(/C(=O)NC2CC2)c2cccnc2)cc1)NO [Example 8, N-Cyclopropyl-2-(pyridin-3-yl)-3-(4-((1E)-3-(hydroxyamino)-3-oxoprop-1-en-1-yl)phenyl)acrylamide]
11	2.6	50	28.9	54.1		COc1ccc(/C(=C\c2ccc(C(=O)Nc3ccccc3N)cc2)C(=O)Nc2ccccc2)c(OC)c1 [Example 122, N-(2-Aminophenyl)-4-(3-phenylamino-2-(2,4-dimethoxyphenyl)-3-oxoprop-1-en-1-yl)benzamide]
4.5	2	2.6	34.7	63.2		Nc1ccccc1NC(=O)c1ccc(/C=C(/C(=O)NC2CC2)c2c[nH]c3ccccc23)cc1 [Example 124, N-(2-Aminophenyl)-4-(3-(cyclopropylamino)-3-oxo-2-(1H-indol-3-yl)prop-1-en-1-yl)benzamide]
1	3	7	93.2	98.6	0.0085	O=C(/C=C/c1ccc(/C=C(/C(=O)NC2CC2)c2ccccc2)cc1)NCCCCCC(=O)NO [Example 82, 6-((1E)-3-(4-(3-(cyclopropylamino)-2-phenyl-3-oxoprop-1-enyl)phenyl)acrylamido)-N-hydroxyhexanamide]
21	10.5	10	36.9	59.3		COc1ccc(/C(=C\c2ccc(C(=O)Nc3ccccc3N)cc2)C(=O)NC2CC2)c(OC)c1 [Example 120, N-(2-Aminophenyl)-4-(3-(cyclopropylamino)-2-(2,4-dimethoxyphenyl)-3-oxoprop-1-en-1-yl)benzamide]
52	44	78	22.6	48.8		Nc1ccccc1NC(=O)/C=C/c1ccc(/C=C(/C(=O)NC2CC2)c2ccc3c(c2)OCO3)cc1 [Example 64, N-Cyclopropyl-3-(4-((1E)-3-(2-aminophenylamino)-3-oxoprop-1-en-1-yl}phenyl)-2-[benzodioxol-5-yl]-acrylamide]
16	30	26	88.8	99.3		O=C(NC1CC1)/C(=C/c1ccc(C(=O)NCc2ccc(C(=O)NO)cc2)cc1)c1ccc(F)cc1Cl [Example 155, 4-(3-(Cyclopropylamino)-2-(2-chloro-4-fluorophenyl)-3-oxoprop-1-en-1-yl)-N-(4-(hydroxycarbamoyl)benzyl)benzamide]
18	19	60	82.2	96.6		O=C(NC1CC1)/C(=C/c1ccc(C(=O)NCc2ccc(C(=O)NO)cc2)cc1)c1ccc2c(c1)OCO2 [Example 157, 4-(3-(Cyclopropylamino)-2-[benzodioxol-5-yl]-3-oxoprop-1-en-1-yl)-N-(4-(hydroxycarbamoyl)benzyl)benzamide]
76	6.8	9.8	8.6	16.6		Nc1ccccc1NC(=O)c1ccc(/C=C(\C(=O)NC2CC2)c2ccc(F)cc2)cc1 [Example 135, (Z)—N-(2-Aminophenyl)-4-(2-(4-fluorophenyl)-3-(cyclopropylamino)-3-oxoprop-1-en-1-yl)benzamide]
70	24	24	93.5	96.5		COc1ccc(/C(=C\c2ccc(/C=C/C(=O)NCCCCCC(=O)NO)cc2)C(=O)NC2CC2)cc1 [Example 84, 6-((1E)-3-(4-(3-(Cyclopropylamino)-2-(4-methoxyphenyl)-3-oxoprop-1-en-1-yl)phenyl)acrylamido)-N-hydroxyhexanamide]
14	15	20	89.3	97.1		COc1ccc(/C=C(/C(=O)NC2CC2)c2cccc(/C=C/C(=O)NO)c2)cc1OC [Example 47, N-Cyclopropyl-3-(3,4-dimethoxyphenyl)-2-(3-((1E)-3-(hydroxyamino)-3-oxoprop-1-en-1-yl)phenyl)acrylamide]
